Results published in ChEMBL document CHEMBL3808292, “Synthesis and biological evaluation of 5,7-dihydroxyflavanone derivatives as antimicrobial agents” (Bioorg Med Chem Lett, 2016).
Converted amounts (≈) assume the structure as drawn.

Key:
[1] = Aqueous solubility of compound at 50 uM; assay type: physicochemical; settings: buffer
HepG2 [2] = assay: (§1) Cytotoxicity against human HepG2 cells assessed as cell viability at 50 uM after 24 hrs by MTS assay; assay type: cell-based; settings: hepg2, 24 h, 50 µM
Bacillus cereus = assay: Antimicrobial activity against Bacillus cereus 10987 after 24 hrs by spectrophotometric method; assay type: functional; settings: Bacillus cereus, 10987, 24 h
Bacillus subtilis = assay: Antimicrobial activity against Bacillus subtilis 1012 after 24 hrs by spectrophotometric method; assay type: functional; settings: Bacillus subtilis, 1012, 24 h
Vibrio cholerae = assay: Antimicrobial activity against Vibrio cholerae 0395N1 after 24 hrs by spectrophotometric method; assay type: functional; settings: 0395N1, 24 h
Staphylococcus aureus = assay: Antimicrobial activity against Staphylococcus aureus ATCC 33807 after 24 hrs by spectrophotometric method; assay type: functional; settings: ATCC 33807, 24 h
Saccharomyces cerevisiae = assay: Antifungal activity against Saccharomyces cerevisiae INVSc1 after 24 hrs by spectrophotometric method; assay type: functional; settings: INVSc1, 24 h
Pseudomonas aeruginosa = assay: Antimicrobial activity against Pseudomonas aeruginosa PAO1 after 24 hrs by spectrophotometric method; assay type: functional; settings: PAO1, 24 h
Bacillus anthracis = assay: Antimicrobial activity against Bacillus anthracis delta sterne after 24 hrs by spectrophotometric method; assay type: functional
[3] = Aqueous solubility of compound; assay type: physicochemical; settings: buffer
HepG2 [4] = assay: Cytotoxicity against human HepG2 cells assessed as cell viability after 24 hrs by MTS assay; assay type: cell-based; settings: for Activity: human, hepg2, 24 h
Escherichia coli = assay: Antimicrobial activity against Escherichia coli BW25113 after 24 hrs by spectrophotometric method; assay type: functional; settings: BW25113, 24 h
[5] = as §1; assay type: cell-based; settings: HepG2 cells, read-out: Activity
[6] = Cytotoxicity against human HepG2 cells assessed as cell viability at 50 uM after 6 hrs by MTS assay; assay type: cell-based; settings: read-out: Activity

SMILES | solubility [1] | Activity (HepG2 [2]) | MIC (Bacillus cereus) | MIC (Bacillus subtilis) | MIC (Vibrio cholerae) | MIC (Staphylococcus aureus) | MIC (Saccharomyces cerevisiae) | MIC (Pseudomonas aeruginosa) | MIC (Bacillus anthracis) | solubility [3] | Activity (HepG2 [4]) | MIC (Escherichia coli) | viability at 24 h, 50 µM [5] | viability at 6 h, 50 µM [6] | IC50 (HepG2 [4]; Homo sapiens, HepG2, 24 h)
O=C1CC(c2ccc(Cl)c(F)c2)Oc2cc(O)cc(O)c21 (centres undefined) | soluble | Non-toxic | 93.8 µM (≈ 28.9 µg/mL) | 125 µM (≈ 38.6 µg/mL) | 125 µM (≈ 38.6 µg/mL) | 125 µM (≈ 38.6 µg/mL) | 250 µM (≈ 77.2 µg/mL) | 250 µM (≈ 77.2 µg/mL) | 62.5 µM (≈ 19.3 µg/mL) | 500 µM (≈ 154 µg/mL) | Dose-dependent effect | 250 µM (≈ 77.2 µg/mL) |  |  | 
O=C1CC(c2ccc(F)cc2)Oc2cc(O)cc(O)c21 (centres undefined) | soluble | Non-toxic | 125 µM (≈ 34.3 µg/mL) | 125 µM (≈ 34.3 µg/mL) | 125 µM (≈ 34.3 µg/mL) | 125 µM (≈ 34.3 µg/mL) | 250 µM (≈ 68.6 µg/mL) | 500 µM (≈ 137 µg/mL) | 125 µM (≈ 34.3 µg/mL) | 1000 µM (≈ 274 µg/mL) | Dose-dependent effect | 500 µM (≈ 137 µg/mL) |  |  | 
O=C1CC(c2ccc(F)c(F)c2)Oc2cc(O)cc(O)c21 (centres undefined) | soluble | Non-toxic | 125 µM (≈ 36.5 µg/mL) | 125 µM (≈ 36.5 µg/mL) | 125 µM (≈ 36.5 µg/mL) | 125 µM (≈ 36.5 µg/mL) | 1000 µM (≈ 292 µg/mL) | 1000 µM (≈ 292 µg/mL) | 62.5 µM (≈ 18.3 µg/mL) | 1000 µM (≈ 292 µg/mL) | Dose-dependent effect | 1000 µM (≈ 292 µg/mL) |  |  | 
O=C1CC(c2ccc(Cl)c(Cl)c2)Oc2cc(O)cc(O)c21 (centres undefined) | soluble |  | 31.2 µM (≈ 10.2 µg/mL) | 62.5 µM (≈ 20.3 µg/mL) | 125 µM (≈ 40.6 µg/mL) | 62.5 µM (≈ 20.3 µg/mL) | 31.2 µM (≈ 10.2 µg/mL) | 125 µM (≈ 40.6 µg/mL) | 31.2 µM (≈ 10.2 µg/mL) | 63 µM (≈ 20.5 µg/mL) | Dose-dependent effect | 125 µM (≈ 40.6 µg/mL) | 57% | 17% | 
O=C1CC(c2cc(F)c(F)c(F)c2)Oc2cc(O)cc(O)c21 (centres undefined) | soluble | Non-toxic | 1000 µM (≈ 310 µg/mL) | 1000 µM (≈ 310 µg/mL) | 1000 µM (≈ 310 µg/mL) | 1000 µM (≈ 310 µg/mL) | 125 µM (≈ 38.8 µg/mL) | 1000 µM (≈ 310 µg/mL) | 1000 µM (≈ 310 µg/mL) | 500 µM (≈ 155 µg/mL) | Dose-dependent effect | 1000 µM (≈ 310 µg/mL) |  |  | 95 µM
O=C1CC(c2cc(O)c(O)c(O)c2)Oc2cc(O)cc(O)c21 (centres undefined) | soluble | Non-toxic | 1000 µM (≈ 304 µg/mL) | 1000 µM (≈ 304 µg/mL) | 1000 µM (≈ 304 µg/mL) | 1000 µM (≈ 304 µg/mL) | 1000 µM (≈ 304 µg/mL) | 1000 µM (≈ 304 µg/mL) | 1000 µM (≈ 304 µg/mL) | 63 µM (≈ 19.2 µg/mL) | Dose-dependent effect | 1000 µM (≈ 304 µg/mL) |  |  | 
